The source of these data is patent US20250129103A1, “METHODS FOR TREATMENT OF CANCER” (Frontier Medicines Corporation, priority 2022, published 2025).

The target in data set [1] is KRAS G12C (GMPPNP-loaded) and cRAF (Ras-binding domain) interaction (Homo sapiens (Human), UniProt P01116, C118S/C51S/C80L/G12C). In words: Inhibition of KRAS G12C and cRAF binding (AlphaScreen). Particulars: KRAS G12C loaded with GMPPNP, cRaf RBD, 2 hours preincubation; read-out: Raf-1 RBD K-Ras IC50. In a few lines: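 GMPPNP-loaded KRAS G12C in 25 mM Hepes pH 7.4, 150 mM NaCl, 5 mM MgCl2, 0.01% Triton X-100, 10 μM GMPPNP, 2% DMSO, preincubated with compound 2 h at room temperature. cRAF RBD plus AlphaScreen beads then added for 60-90 min; signal read at 570 nm.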
Background: Alpha assays give light when donor and acceptor beads are brought close together.

The target of data set [2] is KRAS G12C (GMPPNP-loaded) and PI3Ka (Ras-binding domain) interaction (Homo sapiens (Human), UniProt P01116, C118S/C51S/C80L/G12C). In words: Inhibition of KRAS G12C and PI3Ka binding (AlphaScreen). The note with it: KRAS G12C loaded with GMPPNP, PI3Ka RBD, 2 hours preincubation; read-out: PI3K RBD K-Ras IC50. In a few lines: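 Biotin-AviTag Cys-light KRAS G12C (aa 1-169, C51S/C80L/C118S), GMPPNP-loaded, 1.5 nM, preincubated 2 h with compound, then His-tagged PI3Ka RBD (aa 157-300, 100 nM) plus AlphaScreen beads added for 60-90 min, RT. Buffer Hepes pH 7.4, 10 μM GMPPNP, 2% DMSO; 10-point 1:3 from 50 μM; 4-parameter IC50.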

Data set [3] in a line: Determination of kinetic solubility (pH 7.4). In kind it is physicochemical. Particulars: phosphate buffer, pH 7.4, aqueous buffer, kinetic from dmso stock, 50 mM phosphate buffer pH 7.4, read-out: Ksol, pH 7.4. In a few lines:
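Sample mixed with 50 mM phosphate buffer, pH 7.4, vortexed, then shaken 2 h at room temperature and centrifuged. Filtrate analysed by HPLC-UV and LC-MS/MS, with solubility read from peak areas against a standard calibration curve.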

Data set [4] is described as follows: Determination of logD (1-octanol / phosphate buffer pH 7.4). In kind it is physicochemical. Particulars: 1-octanol/phosphate buffer, pH 7.4, pH 7.4, 1-octanol/phosphate buffer; read-out: Log D, pH 7.4. A digest of the protocol: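 Shake-flask partition between 1-octanol and 100 mM phosphate buffer pH 7.4, each phase presaturated with the other overnight. Tubes shaken 1 h at 800 rpm, room temperature, then centrifuged. Both phases quantified by LCMS and logD calculated from the ratio.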

Each structure is given as a SMILES string. Converted amounts (≈) assume the structure as drawn.

KRAS G12C (GMPPNP-loaded) and cRAF (Ras-binding domain) interaction, sequence (P01116 other isoform, or with tags, fused parts or gaps G12C/C51S/C80L/C118S): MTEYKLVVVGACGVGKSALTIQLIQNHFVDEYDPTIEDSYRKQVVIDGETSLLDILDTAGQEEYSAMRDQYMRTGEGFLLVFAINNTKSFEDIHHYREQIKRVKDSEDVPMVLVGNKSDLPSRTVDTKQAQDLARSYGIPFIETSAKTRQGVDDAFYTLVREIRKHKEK
KRAS G12C (GMPPNP-loaded) and PI3Ka (Ras-binding domain) interaction, sequence (P01116 other isoform, or with tags, fused parts or gaps G12C/C51S/C80L/C118S): as above

As a reminder, the IC50 is the concentration at which inhibition is half-maximal. On to `N#CC[C@H]1CN(c2nc(OC[C@@]34CCCN3C[C@H](F)C4)nc3c(F)c(-c4cccc5ccc(F)c(Cl)c45)ncc23)CCN1C(=O)/C=C/CN1[C@@H]2CC[C@H]1COC2` [Example 79, 2-((S)-1-((E)-4-((1R,5S)-3-oxa-8-azabicyclo[3.2.1]octan-8-yl)but-2-enoyl)-4-(7-(8-chloro-7-fluoronaphthalen-1-yl)-8-fluoro-2-(((2R,7aS)-2-fluorotetrahydro-1H-pyrrolizin-7a(5H)-yl)methoxy)pyrido[4,3-d]pyrimidin-4-yl)piperazin-2-yl)acetonitrile], for which the IC50 in data set [1] and in data set [2] was below 10 nM throughout. In data set [3], the solubility kinetic at 2 h came out at 155 µg/mL (≈ 197 µM). In data set [4], the logD was found to be 3.53.
In the case of `CO[C@H]1CCN(C/C=C/C(=O)N2CCN(c3nc(OC[C@@]45CCCN4C[C@H](F)C5)nc4c(F)c(-c5cccc6ccc(F)c(Cl)c56)ncc34)C[C@@H]2CC#N)C1` [Example 80, 2-((S)-4-(7-(8-chloro-7-fluoronaphthalen-1-yl)-8-fluoro-2-(((2R,7aS)-2-fluorotetrahydro-1H-pyrrolizin-7a(5H)-yl)methoxy)pyrido[4,3-d]pyrimidin-4-yl)-1-((E)-4-((S)-3-methoxypyrrolidin-1-yl)but-2-enoyl)piperazin-2-yl)acetonitrile], the IC50 in data set [1] and in data set [2] was below 10 nM in each case. Moreover, the solubility kinetic at 2 h in data set [3] is 146 µg/mL (≈ 189 µM). Also, in data set [4], the logD turned out to be 3.2.
For the compound `N#CC[C@H]1CN(c2nc(OC[C@@]34CCCN3C[C@H](F)C4)nc3c(F)c(-c4cccc5cccc(Cl)c45)ncc23)CCN1C(=O)/C=C/CN1CC2CCC(C1)O2` [Example 81, 2-((2S)-1-((E)-4-(8-oxa-3-azabicyclo[3.2.1]octan-3-yl)but-2-enoyl)-4-(7-(8-chloronaphthalen-1-yl)-8-fluoro-2-(((2R,7aS)-2-fluorohexahydro-1H-pyrrolizin-7a-yl)methoxy)pyrido[4,3-d]pyrimidin-4-yl)piperazin-2-yl)acetonitrile], the IC50 in data set [1] and in data set [2] was below 10 nM throughout. For the same compound, the solubility kinetic at 2 h in data set [3] was 74.4 µg/mL (≈ 96.7 µM). In addition, in data set [4], the logD was found to be 3.7.
On to `N#CC[C@H]1CN(c2nc(OC[C@@]34CCCN3C[C@H](F)C4)nc3c(F)c(-c4cccc5ccc(F)c(Cl)c45)ncc23)CCN1C(=O)/C=C/CN1CCC(F)(F)CC1` [Example 82, 2-((S)-4-(7-(8-chloro-7-fluoronaphthalen-1-yl)-8-fluoro-2-(((2R,7aS)-2-fluorotetrahydro-1H-pyrrolizin-7a(5H)-yl)methoxy)pyrido[4,3-d]pyrimidin-4-yl)-1-((E)-4-(4,4-difluoropiperidin-1-yl)but-2-enoyl)piperazin-2-yl)acetonitrile], for which the IC50 in data set [1] and in data set [2] was below 10 nM in each case. The solubility kinetic at 2 h in data set [3] was 3.46 µg/mL (≈ 4.35 µM). Further, the logD in data set [4] came to 4.2.
`N#CC[C@H]1CN(c2nc(OC[C@@]34CCCN3C[C@H](F)C4)nc3c(F)c(-c4cccc5ccc(F)c(F)c45)ncc23)CCN1C(=O)/C=C/CN1CCOCC1` [Example 83, 2-((S)-4-(7-(7,8-difluoronaphthalen-1-yl)-8-fluoro-2-(((2R,7aS)-2-fluorotetrahydro-1H-pyrrolizin-7a(5H)-yl)methoxy)pyrido[4,3-d]pyrimidin-4-yl)-1-((E)-4-morpholinobut-2-enoyl)piperazin-2-yl)acetonitrile]: the IC50 in data set [1] and in data set [2] was below 10 nM in each case. Further, in data set [3], the solubility kinetic at 2 h was 93.4 µg/mL (≈ 125 µM). Further, the logD in data set [4] turned out to be 2.98.
For the compound `CO[C@@H]1CCN(C/C=C/C(=O)N2CCN(c3nc(OC[C@@]45CCCN4C[C@H](F)C5)nc4c(F)c(-c5cccc6ccc(F)c(Cl)c56)ncc34)C[C@@H]2CC#N)C1` [Example 85, 2-((S)-4-(7-(8-chloro-7-fluoronaphthalen-1-yl)-8-fluoro-2-(((2R,7aS)-2-fluorotetrahydro-1H-pyrrolizin-7a(5H)-yl)methoxy)pyrido[4,3-d]pyrimidin-4-yl)-1-((E)-4-((R)-3-methoxypyrrolidin-1-yl)but-2-enoyl)piperazin-2-yl)acetonitrile], the IC50 in data set [1] and in data set [2] was below 10 nM in each case. Further, in data set [3], the solubility kinetic at 2 h stood at 85.5 µg/mL (≈ 110 µM). Also, the logD in data set [4] is 2.97.
For the compound `N#CC[C@H]1CN(c2nc(OC[C@@]34CCCN3C[C@H](F)C4)nc3c(F)c(-c4cccc5cccc(Cl)c45)ncc23)CCN1C(=O)/C=C/CN1CC2CC(C1)O2` [Example 86, 2-((2S)-1-((E)-4-(6-oxa-3-azabicyclo[3.1.1]heptan-3-yl)but-2-enoyl)-4-(7-(8-chloronaphthalen-1-yl)-8-fluoro-2-(((2R,7aS)-2-fluorohexahydro-1H-pyrrolizin-7a-yl)methoxy)pyrido[4,3-d]pyrimidin-4-yl)piperazin-2-yl)acetonitrile], the IC50 in data set [1] and in data set [2] was below 10 nM in each case. Also, the solubility kinetic at 2 h in data set [3] was found to be 96.6 µg/mL (≈ 128 µM). Also, the logD in data set [4] is 2.9.
Turning to `N#CC[C@H]1CN(c2nc(OC[C@@]34CCCN3C[C@H](F)C4)nc3c(F)c(-c4cccc5cccc(Cl)c45)ncc23)CCN1C(=O)/C=C/CN1[C@@H]2CC[C@H]1COC2` [Example 87, 2-((S)-1-((E)-4-((1R,5S)-3-oxa-8-azabicyclo[3.2.1]octan-8-yl)but-2-enoyl)-4-(7-(8-chloronaphthalen-1-yl)-8-fluoro-2-(((2R,7aS)-2-fluorohexahydro-1H-pyrrolizin-7a-yl)methoxy)pyrido[4,3-d]pyrimidin-4-yl)piperazin-2-yl)acetonitrile], the IC50 in data set [1] and in data set [2] was below 10 nM throughout. The solubility kinetic at 2 h in data set [3] was 69.8 µg/mL (≈ 90.7 µM). Moreover, in data set [4], the logD was found to be 3.27.
With `CCc1nccc(/C=C/C(=O)N2CCN(c3nc(OC[C@@]45CCCN4C[C@H](F)C5)nc4c(F)c(-c5cccc6ccc(F)c(Cl)c56)ncc34)C[C@@H]2CC#N)n1` [Example 88, 2-((S)-4-(7-(8-chloro-7-fluoronaphthalen-1-yl)-8-fluoro-2-(((2R,7aS)-2-fluorotetrahydro-1H-pyrrolizin-7a(5H)-yl)methoxy)pyrido[4,3-d]pyrimidin-4-yl)-1-((E)-3-(2-ethylpyrimidin-4-yl)acryloyl)piperazin-2-yl)acetonitrile], the IC50 in data set [1] and in data set [2] was below 10 nM throughout. The solubility kinetic at 2 h in data set [3] came out at 45.9 µg/mL (≈ 59.7 µM). Besides, the logD in data set [4] was found to be 4.55.
As to `Cc1cc(/C=C/C(=O)N2CCN(c3nc(OC[C@@]45CCCN4C[C@H](F)C5)nc4c(F)c(-c5cccc6ccc(F)c(Cl)c56)ncc34)C[C@@H]2CC#N)nc(C)n1` [Example 89, 2-((S)-4-(7-(8-chloro-7-fluoronaphthalen-1-yl)-8-fluoro-2-(((2R,7aS)-2-fluorotetrahydro-1H-pyrrolizin-7a(5H)-yl)methoxy)pyrido[4,3-d]pyrimidin-4-yl)-1-((E)-3-(2,6-dimethylpyrimidin-4-yl)acryloyl)piperazin-2-yl)acetonitrile], the IC50 in data set [1] and in data set [2] was below 10 nM each time. Moreover, the solubility kinetic at 2 h in data set [3] is 0.03 µg/mL (≈ 0.0391 µM). Further, the logD in data set [4] turned out to be 3.99.
In the case of `Cc1cc(/C=C/C(=O)N2CCN(c3nc(OC[C@@]45CCCN4C[C@H](F)C5)nc4c(F)c(-c5cccc6ccc(F)c(F)c56)ncc34)C[C@@H]2CC#N)nc(C)n1` [Example 90, 2-((S)-4-(7-(7,8-difluoronaphthalen-1-yl)-8-fluoro-2-(((2R,7aS)-2-fluorotetrahydro-1H-pyrrolizin-7a(5H)-yl)methoxy)pyrido[4,3-d]pyrimidin-4-yl)-1-((E)-3-(2,6-dimethylpyrimidin-4-yl)acryloyl)piperazin-2-yl)acetonitrile], the IC50 was 10 to 100 nM in data set [1] and below 10 nM in data set [2]. Moreover, in data set [3], the solubility kinetic at 2 h amounted to 5.26 µg/mL (≈ 7 µM). Further, the logD in data set [4] came out at 3.77.
